Columns and labels:
[1] = system: surinam grass; assay: Test B pre/postemergence surinam grass; type: in vivo, Brachiaria decumbens
Method in brief: (§1)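 Response is a visual 0-to-10 score relative to untreated plants, where 0 means no effect and 10 means complete control, taken twelve to sixteen days after application. Treatments went onto soil at planting and onto foliage of 1- to 4-leaf plants, using a surfactant-containing non-phytotoxic solvent.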

[2] = system: cocklebur; assay: Test B pre/postemergence cocklebur; type: in vivo, Xanthium strumarium
Method in brief: as §1

[3] = system: purple nutsedge; assay: Test B pre/postemergence purple nutsedge; type: in vivo, Cyperus rotundus
Method in brief: as §1

[4] = system: bamyardgrass; assay: Test B flood test barnyardgrass; type: in vivo, Echinochloa crus-galli
Method in brief: (§2)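 Plants were grown to the 2-leaf stage before treatment with test chemical, then held in a greenhouse for twelve to sixteen days. Injury was visually rated against untreated controls on a 0–10 scale, where 0 is no effect and 10 is complete control.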

[5] = system: sugar beet; assay: Test B pre/postemergence sugar beet; type: in vivo, Beta vulgaris
Method in brief: as §1

[6] = system: morningglory; assay: Test B pre/postemergence morningglory; type: in vivo, Ipomoea hederacea
Method in brief: as §1

[7] = system: rape; assay: Test B pre/postemergence rape; type: in vivo, Brassica napus
Method in brief: as §1

[8] = system: duck salad; assay: Test B flood test duck salad; type: in vivo, Heteranthera limosa
Method in brief: as §2

[9] = system: bedstraw; assay: Test B pre/postemergence bedstraw; type: in vivo, Galium aparine; conditions: Preemergence
Method in brief: as §1

[10] = system: velvetleaf; assay: Test B pre/postemergence velvetleaf; type: in vivo, Abutilon theophrasti
Method in brief: as §1

[11] = system: giant foxtail; assay: Test B pre/postemergence giant foxtail; type: in vivo, Setaria faberii
Method in brief: as §1

[12] = system: corn; assay: Test B pre/postemergence corn; type: in vivo, Zea mays
Method in brief: as §1

[13] = system: rice; assay: Test B flood test rice; type: in vivo, Oryza sativa
Method in brief: as §2

[14] = system: blackgrass; assay: Test B pre/postemergence blackgrass; type: in vivo, Alopecurus myosuroides
Method in brief: as §1

[15] = system: pigweed; assay: Test B pre/postemergence pigweed; type: in vivo, Amaranthus retroflexus
Method in brief: as §1

[16] = Postemergence, Rate 62 g/ha, scale 0 to 10, 0 is no effect, 10 is complete control
[17] = Postemergence, Rate 125 g/ha, scale of 0 to 10 where 0 is no effect and 10 is complete control
[18] = Postemergence, Rate 250 g/ha, scale of 0 to 10, 0 is no effect, 10 is complete control
[19] = Preemergence, Rate 62 g/ha, scale of 0 to 10 where 0 is no effect and 10 is complete control
[20] = Preemergence, Rate 125 g/ha, scale of 0 to 10 where 0 is no effect and 10 is complete control
[21] = Preemergence, Rate 250 g/ha, scale 0 to 10 (0 no effect, 10 complete control)
[22] = Preemergence, Rate 500 g/ha, scale of 0 to 10 where 0 is no effect and 10 is complete control
[23] = Rate 500 g/ha, Postemergence, scale 0 to 10, 0 is no effect, 10 is complete control
[24] = Rate 62 g/ha, flood test species, Pre-emergence, visual evaluation after twelve to sixteen days
[25] = Rate 125 g/ha, under heading Pre-emergence, flood test species, visual evaluation after twelve to sixteen days
[26] = Rate 250 g/ha, Pre-emergence (flood test species), scale 0 to 10, 0 is no effect, 10 is complete control
[27] = Rate 500 g/ha, Pre-emergence section of Table B, 0 to 10 scale (0 no effect, 10 complete control)

**Q.** With `C=C(Cc1ccccc1)Cn1c(=O)on(C(=O)N(c2ccccc2)C(C)C)c1=O` [Compound 650] as the compound, how does the “Plant response rating, B. signalgrass” value [1, 16] read?
**A.** 0

**Q.** And the “Plant response rating, B. signalgrass” value [1, 17]?
**A.** 0

**Q.** And the “B. signalgrass plant response rating” value [1, 18]?
**A.** 0

**Q.** What about the “B. signalgrass plant response rating” value [1, 19] of the same compound?
**A.** 0

**Q.** What about the “B. signalgrass plant response rating” value [1, 20] of the same compound?
**A.** 0

**Q.** And the “Plant response rating, B. signalgrass” value [1, 21]?
**A.** 0

**Q.** What about the “Plant response rating, B. signalgrass” value [1, 22] of the same compound?
**A.** 4

**Q.** And the “B. signalgrass plant response rating” value [1, 23]?
**A.** 2

**Q.** And the “Plant response rating, Cocklebur” value [2, 16]?
**A.** 0

**Q.** And the “Cocklebur plant response rating” value [2, 17]?
**A.** 0

**Q.** What about the “Cocklebur plant response rating” value [2, 18] of the same compound?
**A.** 0

**Q.** And the “Cocklebur plant response rating” value [2, 19]?
**A.** 0

**Q.** What about the “Cocklebur plant response rating” value [2, 20] of the same compound?
**A.** 0

**Q.** What about the “Plant response rating, Cocklebur” value [2, 21] of the same compound?
**A.** 0

**Q.** And the “Plant response rating, Cocklebur” value [2, 22]?
**A.** 0

**Q.** And the “Cocklebur plant response rating” value [2, 23]?
**A.** 0

**Q.** What about the “Plant response rating, Nutsedge” value [3, 16] of the same compound?
**A.** 2

**Q.** And the “Nutsedge plant response rating” value [3, 17]?
**A.** 2

**Q.** What about the “Nutsedge plant response rating” value [3, 20] of the same compound?
**A.** 3

**Q.** What about the “Plant response rating, Nutsedge” value [3, 21] of the same compound?
**A.** 7

**Q.** What about the “Plant response rating, Nutsedge” value [3, 22] of the same compound?
**A.** 5

**Q.** And the “Nutsedge plant response rating” value [3, 23]?
**A.** 4

**Q.** What about the “Plant response rating, Barnyardgrass (0 to 10 scale, 0 is no effect, 10 is complete control)” value [4, 24] of the same compound?
**A.** 0

**Q.** And the “Barnyardgrass plant response rating (0 to 10 scale, 0 is no effect, 10 is complete control)” value [4, 25]?
**A.** 0

**Q.** What about the “Barnyardgrass plant response rating” value [4, 26] of the same compound?
**A.** 0

**Q.** And the “Barnyardgrass plant response rating” value [4, 27]?
**A.** 0

**Q.** What about the “Plant response rating, Sugarbeets” value [5, 16] of the same compound?
**A.** 0

**Q.** And the “Sugarbeets plant response rating” value [5, 17]?
**A.** 0

**Q.** And the “Sugarbeets plant response rating” value [5, 19]?
**A.** 0

**Q.** And the “Sugarbeets plant response rating” value [5, 20]?
**A.** 0

**Q.** What about the “Plant response rating, Sugarbeets” value [5, 21] of the same compound?
**A.** 0

**Q.** What about the “Plant response rating, Sugarbeets” value [5, 22] of the same compound?
**A.** 4

**Q.** And the “Sugarbeets plant response rating” value [5, 23]?
**A.** 0

**Q.** And the “Plant response rating, Morningglory” value [6, 16]?
**A.** 4

**Q.** What about the “Morningglory plant response rating” value [6, 17] of the same compound?
**A.** 10

**Q.** What about the “Morningglory plant response rating” value [6, 18] of the same compound?
**A.** 10

**Q.** What about the “Morningglory plant response rating” value [6, 19] of the same compound?
**A.** 0

**Q.** What about the “Morningglory plant response rating” value [6, 20] of the same compound?
**A.** 0

**Q.** And the “Plant response rating, Morningglory” value [6, 21]?
**A.** 1

**Q.** And the “Plant response rating, Morningglory” value [6, 22]?
**A.** 1

**Q.** And the “Morningglory plant response rating” value [6, 23]?
**A.** 10

**Q.** And the “Plant response rating, Rape” value [7, 16]?
**A.** 0

**Q.** What about the “Rape plant response rating” value [7, 17] of the same compound?
**A.** 0

**Q.** And the “Rape plant response rating” value [7, 19]?
**A.** 0

**Q.** What about the “Rape plant response rating” value [7, 20] of the same compound?
**A.** 0

**Q.** And the “Plant response rating, Rape” value [7, 21]?
**A.** 0

**Q.** And the “Plant response rating, Rape” value [7, 22]?
**A.** 2

**Q.** And the “Rape plant response rating” value [7, 23]?
**A.** 3

**Q.** What about the “Plant response rating, Ducksalad (0 to 10 scale, 0 is no effect, 10 is complete control)” value [8, 24] of the same compound?
**A.** 0

**Q.** What about the “Ducksalad plant response rating (0 to 10 scale, 0 is no effect, 10 is complete control)” value [8, 25] of the same compound?
**A.** 0

**Q.** What about the “Ducksalad plant response rating” value [8, 26] of the same compound?
**A.** 0

**Q.** What about the “Ducksalad plant response rating” value [8, 27] of the same compound?
**A.** 0

**Q.** And the “Bedstraw plant response rating” value ([9]; Rate 62 g/ha, scale of 0 to 10 where 0 is no effect and 10 is complete control)?
**A.** 0

**Q.** And the “Bedstraw plant response rating” value ([9]; Rate 125 g/ha, scale of 0 to 10 where 0 is no effect and 10 is complete control)?
**A.** 0

**Q.** What about the “Plant response rating, Bedstraw” value ([9]; Rate 250 g/ha, scale 0 to 10 (0 no effect, 10 complete control)) of the same compound?
**A.** 0

**Q.** What about the “Plant response rating, Bedstraw” value ([9]; Rate 500 g/ha, scale of 0 to 10 where 0 is no effect and 10 is complete control) of the same compound?
**A.** 5

**Q.** What about the “Plant response rating, Velvetleaf” value [10, 16] of the same compound?
**A.** 0

**Q.** What about the “Velvetleaf plant response rating” value [10, 17] of the same compound?
**A.** 0

**Q.** And the “Velvetleaf plant response rating” value [10, 19]?
**A.** 0

**Q.** And the “Velvetleaf plant response rating” value [10, 20]?
**A.** 0

**Q.** And the “Plant response rating, Velvetleaf” value [10, 21]?
**A.** 0

**Q.** And the “Plant response rating, Velvetleaf” value [10, 22]?
**A.** 0

**Q.** And the “Velvetleaf plant response rating” value [10, 23]?
**A.** 2

**Q.** What about the “Plant response rating, Giant foxtail” value [11, 16] of the same compound?
**A.** 0

**Q.** What about the “Giant foxtail plant response rating” value [11, 17] of the same compound?
**A.** 2

**Q.** What about the “Giant foxtail plant response rating” value [11, 18] of the same compound?
**A.** 8

**Q.** And the “Giant foxtail plant response rating” value [11, 19]?
**A.** 7

**Q.** What about the “Giant foxtail plant response rating” value [11, 20] of the same compound?
**A.** 10

**Q.** And the “Plant response rating, Giant foxtail” value [11, 21]?
**A.** 10

**Q.** What about the “Plant response rating, Giant foxtail” value [11, 22] of the same compound?
**A.** 10

**Q.** What about the “Giant foxtail plant response rating” value [11, 23] of the same compound?
**A.** 8

**Q.** What about the “Plant response rating, Corn” value [12, 16] of the same compound?
**A.** 0

**Q.** What about the “Corn plant response rating” value [12, 17] of the same compound?
**A.** 0

**Q.** What about the “Corn plant response rating” value [12, 18] of the same compound?
**A.** 2

**Q.** What about the “Corn plant response rating” value [12, 19] of the same compound?
**A.** 0

**Q.** What about the “Corn plant response rating” value [12, 20] of the same compound?
**A.** 0

**Q.** What about the “Plant response rating, Corn” value [12, 21] of the same compound?
**A.** 0

**Q.** And the “Plant response rating, Corn” value [12, 22]?
**A.** 0

**Q.** And the “Corn plant response rating” value [12, 23]?
**A.** 4

**Q.** And the “Plant response rating, Rice (0 to 10 scale, 0 is no effect, 10 is complete control)” value [13, 24]?
**A.** 0

**Q.** What about the “Rice plant response rating (0 to 10 scale, 0 is no effect, 10 is complete control)” value [13, 25] of the same compound?
**A.** 0

**Q.** What about the “Rice plant response rating” value [13, 26] of the same compound?
**A.** 0

**Q.** What about the “Rice plant response rating” value [13, 27] of the same compound?
**A.** 0

**Q.** And the “Plant response rating, Blackgrass” value [14, 16]?
**A.** 0

**Q.** What about the “Blackgrass plant response rating” value [14, 17] of the same compound?
**A.** 0

**Q.** What about the “Blackgrass plant response rating” value [14, 18] of the same compound?
**A.** 0

**Q.** And the “Blackgrass plant response rating” value [14, 19]?
**A.** 0

**Q.** What about the “Blackgrass plant response rating” value [14, 20] of the same compound?
**A.** 0

**Q.** What about the “Plant response rating, Blackgrass” value [14, 21] of the same compound?
**A.** 0

**Q.** What about the “Plant response rating, Blackgrass” value [14, 22] of the same compound?
**A.** 3

**Q.** And the “Blackgrass plant response rating” value [14, 23]?
**A.** 3

**Q.** What about the “Plant response rating, Redroot pigweed” value [15, 16] of the same compound?
**A.** 2

**Q.** What about the “Redroot pigweed plant response rating” value [15, 17] of the same compound?
**A.** 6

**Q.** What about the “Redroot pigweed plant response rating” value [15, 19] of the same compound?
**A.** 1

**Q.** What about the “Redroot pigweed plant response rating” value [15, 20] of the same compound?
**A.** 7

**Q.** And the “Plant response rating, Redroot pigweed” value [15, 21]?
**A.** 7

**Q.** And the “Plant response rating, Redroot pigweed” value [15, 22]?
**A.** 9

**Q.** What about the “Redroot pigweed plant response rating” value [15, 23] of the same compound?
**A.** 6

Reference: patent US6737383B1, “Herbicidal oxadiazolidines” (priority 1999, dated 2004)
